This passage reports IC50 results from US5162336A, “Tetrahydro-pyrido-indoles as cholecystokinin and gastrin antagonists” (Rhone-Poulenc Rorer Pharmaceuticals Inc., priority 1990, dated 1992).

Structures are written as SMILES. Bounds are passed on as bounds.

The experiment addresses T1, CCK-A receptor (Rattus norvegicus, UniProt P30551).
T1 construct: from tissue; host or cells: pancreas membranes of Sprague-Dawley rat
T1 sequence (P30551 1-444): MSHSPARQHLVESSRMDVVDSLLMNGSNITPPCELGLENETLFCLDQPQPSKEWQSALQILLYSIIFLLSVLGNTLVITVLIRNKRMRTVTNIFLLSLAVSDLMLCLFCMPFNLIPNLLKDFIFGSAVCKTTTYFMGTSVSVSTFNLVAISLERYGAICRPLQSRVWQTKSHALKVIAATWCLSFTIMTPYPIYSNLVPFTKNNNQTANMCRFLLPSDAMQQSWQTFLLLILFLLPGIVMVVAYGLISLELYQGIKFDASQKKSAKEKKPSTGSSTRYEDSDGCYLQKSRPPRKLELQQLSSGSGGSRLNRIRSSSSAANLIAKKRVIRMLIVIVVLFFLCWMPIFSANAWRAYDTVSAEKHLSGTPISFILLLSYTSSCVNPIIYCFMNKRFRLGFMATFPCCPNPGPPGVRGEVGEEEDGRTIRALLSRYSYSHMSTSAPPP
The experiment in a line: CCK-A receptor binding assay (displacement of 3H-L-364,718 from rat pancreas membranes). To be noted: 3H-L-364,718 0.2 nM, 37° C., 30 min, read-out: In vitro Binding Data IC50 CCK. Details: species or system Sprague-Dawley rat. How it is done: Washer Buffer (for use with Brandel Cell Harvester):
30 liters of 50 mM Tris, ph 7.7: Dissolve 181.7 g. Tris base in 4 1. deionized water at room temperature. Adjust pH to 7.7 with 6 N HCl and Q.S. to 30 1.
50 mM Tris-Cl, 5 mM MgCl2, 5 mM dithio-thretiol, 0.14 mg/ml bacitracin, and 2 mg/ml bovine serum albumin.
1 liter of 5X stock buffer:
30.28 g. Tris base per 800 ml D.I. water 5.09 g. MgCl2 6 H2 O, pH to 7.7 at room temperature with 6N HCl and Q.S. 1 liter, store at 4° C.
250 ml working buffer kept on ice:
50 ml of 5X stock buffer 0.1928 g. dithiothretiol (5 mM), 35 mg bacitracin (0.14 mg/ml), and 0.5 g. BSA (2mg/ml).
Unlabeled L-364,718(nonpeptide ligand):
Unlabeled L-364,718 (300 nM final concentration) is used to define nonspecific binding. A 3 mM solution is made in absolute ethanol and stored in a scintillation vial at -70° C. Aliquots are diluted 100-fold in the assay.
A Sprague-Dawley rat is sacrificed by asphyxiation with carbon dioxide and the pancreas removed. The tissue is immersed in cold wash buffer and carefully trimmed of fat, connective tissue, blood vessels, blotted and weighed. The tissue is homogenized in a Sorvall SS-34 centrifuge tube in 50 volumes of wash buffer using a Polytron at setting 7 for 15 seconds. The tissue is centrifuged (Sorvall SS-34) at 19,000 rpm for 10 min. The supernatant is poured off and the pellet resuspended in sufficient buffer to obtain a contraction of 40 mg tissue wet weight/ml. Separate aliquots (2,3ml) are placed in each of 8 centrifuge tubes and centrifuged as before. The supernatants are poured off and the pellets stored at -70° C. Stored pellets are sufficient for the assay of 160 tubes and are stable for 1-2 months.
During the assay the stored membranes are resuspended in 40 ml of assay buffer by scraping the pellet off the wall of the centrifuge tube and washing it into a teflon-glass homogenizer. Membranes are resuspended by 5 passes with the teflon pestle and the membranes stored on ice until ready for use.
Preparation of Compounds:
Compounds are prepared in DMSO (dimethyl sulfoxide) or in assay buffer. The majority of structures active as CCK antagonists generally require DMSO for complete solubility. Approximately 2-3 mg of compound is weighed directly into a 13×100 mm test tube and sufficient DMSO added to obtain a working stock solution at a concentration 100 fold greater than the highest concentration being tested in the assay. A total of 10 μl of each concentration of drug is added into a final volume of 1 ml to yield a 100 fold dilution of the, working stock solution. Control binding tubes ("totals and nonspecifics") are also treated with 10 μl DMSO.
^3 H-L-364,718 is obtained from New England Nuclear (Cat. #971) and is used as supplied. The final assay concentration of ^3 H-L-364,718 in assay buffer should be 0.2 nM in a final assay volume of 1 ml. ^3 H-L-364,718 (0.2 pmol) is added into the assay in a volume of 25 μl (8 nM working stock solution). The required dilution (usually>1000 fold) is obtained by dividing the working stock concentration into the concentration of the specific lot.
Samples are prepared in triplicate and a "total" (buffer addition) and "nonspecific" (300 nM unlabeled L-364,718) set of tubes included in each set of 24 tubes. The remaining 6 sets of triplicates are used either for screening or IC50 determinations. The order of addition is drugs-DMSO, buffer, unlabeled L-364,718, ^3 H-L-364,718, and to start the assay, membranes.
While tubes are incubating a shaking water bath at 37° C. for 30 min Brandel deposit/dispense filters are presoaked in wash buffer. Following the end of the incubation, sets of 24 tubes are rapidly washed with assay buffer as follows. Assay buffer is added to the incubation tubes to the height of the uppermost cross support in the standard Brandel test tube rack and the contents immediately aspirated. This process is repeated twice more, the filter removed, marked and the next set of 24 tubes processed. […]
(Loss of bound radioactivity is the signal in a displacement assay; it reports binding, not function.)
For `NC(=O)[C@H](CC(=O)O)NC(=O)C1(NC(=O)[C@H]2Cc3c([nH]c4ccccc34)CN2C(=O)Nc2ccc(Cl)c(Cl)c2)CCCC1` [Example 26], the IC50 (usually the concentration that gives 50% inhibition) is 100 µM.
For the compound `CC(C)C[C@H](NC(=O)[C@H]1Cc2c([nH]c3ccccc23)CN1C(=O)Nc1ccc(Cl)c(Cl)c1)C(=O)NCCC(=O)O` [Example 27], the IC50 was determined as 14 µM.
For the compound `CC(C)C[C@H](NC(=O)[C@H]1Cc2c([nH]c3ccccc23)CN1C(=O)Nc1ccc(Cl)c(Cl)c1)C(=O)NCC(N)=O` [Example 28], the IC50 came to 9 µM.
As to `Cc1cccc(NC(=O)N2Cc3[nH]c4ccccc4c3C[C@@H]2C(=O)N[C@@H](CC(C)C)C(N)=O)c1` [Example 39, N-[(3R)-2-(3-methylphenylcarbamoyl)-1,2,3,4-tetrahydro-9H-pyrido[3,4-b]indole-3-carboxy]-L-leucinamide], the IC50 is above 100 µM.
On to `CC(C)C[C@H](NC(=O)[C@H]1Cc2c([nH]c3ccccc23)CN1)C(=O)N[C@@H](CC(=O)OCc1ccccc1)C(N)=O` [Example 40], for which the half-maximal inhibitory concentration (IC50) stood at 41 µM.
Next, `Cc1cccc(NC(=O)N2Cc3[nH]c4ccccc4c3C[C@@H]2C(=O)N[C@@H](CC(C)C)C(=O)N[C@@H](Cc2ccccc2)C(N)=O)c1` [Example 42]: 4 µM; `CCOC(=O)c1ccc(NC(=O)[C@H]2Cc3c([nH]c4ccccc34)CN2C(=O)Nc2cccc(C)c2)cc1` [Example 43]: 37 µM; `Cc1cccc(NC(=O)N2Cc3[nH]c4ccccc4c3C[C@@H]2C(=O)N2CCC[C@H]2C(=O)N[C@@H](CC(=O)O)C(N)=O)c1` [Example 44, N-[(3R)-2-(3-methylphenylcarbamoyl)-1,2,3,4-tetrahydro-9H-pyrido[3,4-b]indole-3-carboxyl]-L-prolyl-L-aspartic acid amide]: 98 µM.
For `Cc1cccc(NC(=O)N2Cc3[nH]c4ccccc4c3C[C@@H]2C(=O)N[C@H](CC(C)C)C(=O)N[C@H](CC(=O)O)C(N)=O)c1` [Example 45] the value was 78 µM; for `CCCCCN(CCCCC)C(=O)[C@H](CC(=O)O)NC(=O)[C@H]1Cc2c([nH]c3ccccc23)CN1C(=O)Nc1cccc(C)c1` [Example 46, N-[(3R)-2-(3-methylphenylcarbamoyl)-1,2,3,4-tetrahydro-9H-pyrido[3,4-b]indole-3-carboxyl]-L-aspartic acid dipentyl amide], 3.9 µM.
For `Cc1cccc(NC(=O)N2Cc3[nH]c4ccccc4c3C[C@H]2C(=O)N[C@H](CC(C)C)C(=O)N[C@H](CC(=O)O)C(N)=O)c1` [Example 49] the value was 35 µM; for `Cc1cccc(NC(=O)N2Cc3[nH]c4ccccc4c3C[C@@H]2C(=O)N[C@@H](CC(C)C)C(=O)N[C@@H](CC(N)=O)C(=O)O)c1` [Example 50], 92 µM; for `Cc1cccc(NC(=O)N2Cc3[nH]c4ccccc4c3C[C@@H]2C(=O)N[C@@H](CC(C)C)C(=O)N[C@H](CC(=O)O)C(N)=O)c1` [Example 51, N-[(3R)-2-(3-methylphenylcarbamoyl)-1,2,3,4-tetrahydro-9H-pyrido[3,4-b]indole-3-carboxyl]-L-leucyl-D-aspartic acid amide], 100 µM.
On to `Cc1cccc(NC(=O)N2Cc3[nH]c4ccccc4c3C[C@H]2C(=O)N[C@H](CC(C)C)C(=O)N[C@@H](CC(=O)O)C(N)=O)c1` [Example 52], for which the 50% inhibitory concentration (IC50) is 53 µM.
For `Cc1cccc(NC(=O)N2Cc3[nH]c4ccccc4c3C[C@@H]2C(=O)N(C)[C@@H](CC(C)C)C(=O)N[C@@H](CC(=O)O)C(N)=O)c1` [Example 53, N-[(3R)-2-(3-methylphenylcarbamoyl)-1,2,3,4-tetrahydro-9H-pyrido[3,4-b]indole-3-carboxyl]N'-methyl-L-leucine-L-aspartic acid amide] the value was 29 µM; for `Cc1cccc(C(=O)N2Cc3[nH]c4ccccc4c3C[C@@H]2C(=O)N[C@@H](CC(C)C)C(=O)N[C@@H](CC(=O)O)C(N)=O)c1` [Example 54], above 100 µM.
